Ends that are not written are not given here.
Legend:
E. coli BW25113 [1] = assay type: cell-based, Escherichia coli
Excerpt: (§1) Table 3 MIC and MBC of the native Bac5(1–17) (wt) and selected Bac5‐derivatives on pathogenic and reference bacterial strains. | column: MBC (μM) / wt; MBC (μM) / 258; MBC (μM) / 272; MBC (μM) / 278; MBC (μM) / 281; MBC (μM) / 291

S. aureus ATCC 25923 [2] = assay type: cell-based, Staphylococcus aureus; details: ATCC 25923, 18 h
Excerpt: (§2) The following bacterial strains were used: Escherichia coli BW25113, E. coli BW25113ΔsbmA (JW0368‐1, KEIO collection21); Acinetobacter baumannii ATCC 19606, Klebsiella pneumoniae ATCC 700603, Pseudomonas aeruginosa ATCC 27853 and Staphylococcus aureus ATCC 25923. The pathogenic E. coli EURL‐VTEC A07, E. coli EURL‐VTEC C07, E. coli SSI‐NN14, E. coli EA22, E. coli SSI‐OO15 and E. coli C679‐12 strains were generously provided by the European Union Reference Laboratory for E. coli, Department of Food Safety, Nutrition and Veterinary Public Health, Istituto Superiore di Sanità, Rome, Italy. All the strains were grown overnight in Müller‐Hinton broth (MHB, Difco) at 37 °C, with shaking (140 rpm). The day after, the overnight bacterial cultures were diluted approx. 1 : 40 in fresh MHB and incubated at 37 °C with shaking (140 rpm) until an OD600nm of ≈0.3 was reached. E. coli BW25113ΔsbmA was grown in the presence of 50 μg mL^−1 kanamycin.
(§3) Peptides were diluted in 100 μL of MHB to the concentration of 128 μM, dispensed in the first wells of a 96‐wells microtiter plate (round‐bottom) and serially two‐fold diluted with MHB into successive wells in a final volume of 50 μl. Subsequently, 50 μL of a bacterial suspension (5×10^5 CFU mL^−1) were added to each well, halving the final concentration of bacteria and peptides. Bacteria were added to MHB only as bacterial growth‐control, whereas 100 μl of MHB were used to check the medium sterility. The plate was incubated overnight at 37 °C (≈18 hours) and sealed with parafilm to minimise evaporation. The MIC was calculated as the first clear well without bacterial growth. If barely detectable growth was present, the OD600nm of the plate was measured by a multiplate reader Tecan (software Sunrise). The MIC was then calculated as the well whose OD620 was≤1 % of that of the untreated growth control.

S. aureus ATCC 25923 [3] = assay type: cell-based, Staphylococcus aureus
Excerpt: as §1

[4] = test system: K. pneumoniae ATCC 700603; assay type: cell-based, Klebsiella pneumoniae
Excerpt: as §1

P. aeruginosa ATCC 27853 [5] = assay type: cell-based, Pseudomonas aeruginosa
Excerpt: as §1

A. baumannii ATCC 19606 [6] = assay type: cell-based, Acinetobacter baumannii
Excerpt: as §1

E. coli BW25113 [7] = assay type: cell-based, Escherichia coli; details: BW25113, 18 h
Excerpt: as §2, §3

E. coli EA22 ETEC = assay type: cell-based, Escherichia coli; details: 18 h
Excerpt: as §2, §3

[8] = test system: E. coli EURL‐VTEC A07 EPEC:O111; assay type: cell-based, Escherichia coli; details: EURL‐VTEC A07 EPEC:O111, 18 h
Excerpt: as §2, §3

[9] = test system: E. coli C679‐12 EAEC:0104; assay type: cell-based, Escherichia coli; details: C679‐12 EAEC:0104, 18 h
Excerpt: as §2, §3

[10] = test system: E. coli EURL‐VTEC C07 STEC:O157; assay type: cell-based, Escherichia coli; details: EURL‐VTEC C07 STEC:O157, 18 h
Excerpt: as §2, §3

E. coli SSI‐OO15 EIEC = assay type: cell-based, Escherichia coli; details: 18 h
Excerpt: as §2, §3

A. baumannii ATCC 19606 [11] = assay type: cell-based, Acinetobacter baumannii; details: ATCC 19606, 18 h
Excerpt: as §2
Peptides were diluted in 100 μL of MHB to the concentration of 128 μM, dispensed in the first wells of a 96‐wells microtiter plate (round‐bottom) and serially two‐fold diluted with MHB into successive wells in a final volume of 50 μl. […] The MIC was calculated as the first clear well without bacterial growth. If barely detectable growth was present, the OD600nm of the plate was measured by a multiplate reader Tecan (software Sunrise). […]

P. aeruginosa ATCC 27853 [12] = assay type: cell-based, Pseudomonas aeruginosa; details: ATCC 27853, 18 h
Excerpt: as §2, §3

E. coli BW25113 [13] = test: Propidium iodide uptake by flow cytometry (membrane permeabilization); assay type: cell-based, Escherichia coli; details: 1 μM colistin (positive control), 30 min
Method: The bacterial cell integrity was controlled evaluating the propidium iodide (PI) uptake by flow‐cytometry on a Cytomics FC 500 (Beckman‐Coulter). 10^4 bacterial cells were acquired for each measurement. Mid‐log phase E. coli BW25113 cultures diluted to 10^6 CFU mL^−1 in MHB were exposed for 30 min to 4 μM and 16 μM peptides at 37 °C in the presence of 10 μg mL^−1 PI. Membrane permeabilization was calculated as the % PI‐positive cells, and membrane damage measuring the mean fluorescence intensity (MFI). An untreated control received sterile water instead of peptides. By contrast, bacteria were treated with 1 μM colistin as a permeabilizing control. Data are reported as the average ± standard deviation.

RFRPPIRRPPIRPPFYP [wt, reference compound]
MBC (E. coli BW25113 [1]): >64 µM | MIC (S. aureus ATCC 25923 [2]): >64 µM | MBC (S. aureus ATCC 25923 [3]): >64 µM | MBC [4]: >64 µM | MBC (P. aeruginosa ATCC 27853 [5]): >64 µM | MBC (A. baumannii ATCC 19606 [6]): >64 µM | MIC (E. coli BW25113 [7]): 16 µM | MIC (E. coli EA22 ETEC): 2 µM | MIC [8]: 16 µM | MIC [9]: 16 µM | MIC [10]: >64 µM | MIC (E. coli SSI‐OO15 EIEC): 16 µM | MIC (A. baumannii ATCC 19606 [11]): >64 µM | MIC (P. aeruginosa ATCC 27853 [12]): >64 µM

RFRPPIRRPPIRPPFYR [compound 258]
MBC (E. coli BW25113 [1]): 64 µM | MIC (S. aureus ATCC 25923 [2]): >64 µM | MBC (S. aureus ATCC 25923 [3]): >64 µM | MBC [4]: >64 µM | MBC (P. aeruginosa ATCC 27853 [5]): >64 µM | MBC (A. baumannii ATCC 19606 [6]): 64 µM | MIC (E. coli BW25113 [7]): 8 µM | MIC (E. coli EA22 ETEC): 2 µM | MIC [8]: 8 µM | MIC [9]: 8 µM | MIC [10]: >64 µM | MIC (E. coli SSI‐OO15 EIEC): 4 µM | MIC (A. baumannii ATCC 19606 [11]): 64 µM | MIC (P. aeruginosa ATCC 27853 [12]): >64 µM

RFRPPIRRPPRRPPFYPG-NH2 (C-terminus assumed) [I11R]
MIC (E. coli BW25113 [7]): >64 µM

RFRPPIRRPPSRPPFYPG-NH2 (C-terminus assumed) [I11S]
MIC (E. coli BW25113 [7]): >64 µM

RFRPPIRRPPWRPPFYPG-NH2 (C-terminus assumed) [I11W]
MIC (E. coli BW25113 [7]): 32 µM

RFRPPIRRPRIRPPFYPG-NH2 [P10R]
MIC (E. coli BW25113 [7]): >64 µM

RFRPPIRRPSIRPPFYPG-NH2 [P10S]
MIC (E. coli BW25113 [7]): 64 µM

RFRPPIRRPWIRPPFYPG-NH2 [P10W]
MIC (E. coli BW25113 [7]): 32 µM

RFRPPIRRRPIRPPFYPG-NH2 (C-terminus assumed) [P9R]
MIC (E. coli BW25113 [7]): 8 µM

RFRPPIRRSPIRPPFYPG-NH2 (C-terminus assumed) [P9S]
MIC (E. coli BW25113 [7]): 64 µM

RFRPPIRRWPIRPPFYPG-NH2 (C-terminus assumed) [P9W]
MIC (E. coli BW25113 [7]): 16 µM

RFRPPIRSPPIRPPFYPG-NH2 [R8S]
MIC (E. coli BW25113 [7]): >64 µM

RFRPPIRWPPIRPPFYPG-NH2 [R8W]
MIC (E. coli BW25113 [7]): 32 µM

RFRPPISRPPIRPPFYPG-NH2 [R7S]
MIC (E. coli BW25113 [7]): >64 µM

RFRPPIWRPPIRPPFYPG-NH2 [R7W]
MIC (E. coli BW25113 [7]): 64 µM

RFRPPPRRPPIRPPFYPG-NH2 (C-terminus assumed) [I6P]
MIC (E. coli BW25113 [7]): >64 µM

RFRPPRRRPPIRPPFYPG-NH2 (C-terminus assumed) [I6R]
MIC (E. coli BW25113 [7]): 16 µM

RFRPPSRRPPIRPPFYPG-NH2 (C-terminus assumed) [I6S]
MIC (E. coli BW25113 [7]): 64 µM

RFRPPWRRPPIRPPFYPG-NH2 (C-terminus assumed) [I6W]
MIC (E. coli BW25113 [7]): 8 µM

RFRPRIRRPPIRPPFYPG-NH2 (C-terminus assumed) [P5R]
MIC (E. coli BW25113 [7]): 16 µM

RFRPSIRRPPIRPPFYPG-NH2 (C-terminus assumed) [P5S]
MIC (E. coli BW25113 [7]): 64 µM

RFRPWIRRPPIRPPFYPG-NH2 (C-terminus assumed) [P5W]
MIC (E. coli BW25113 [7]): 16 µM

RFRRPIRRPPIRPPFYPG-NH2 (C-terminus assumed) [P4R]
MIC (E. coli BW25113 [7]): 4 µM

RFRSPIRRPPIRPPFYPG-NH2 (C-terminus assumed) [P4S]
MIC (E. coli BW25113 [7]): 16 µM

RFRWPIRRPPIRPPFYR [compound 272]
MBC (E. coli BW25113 [1]): 8 µM | MIC (S. aureus ATCC 25923 [2]): >64 µM | MBC (S. aureus ATCC 25923 [3]): >64 µM | MBC [4]: >64 µM | MBC (P. aeruginosa ATCC 27853 [5]): 64 µM | MBC (A. baumannii ATCC 19606 [6]): 16 µM | MIC (E. coli BW25113 [7]): 4 µM | MIC (E. coli EA22 ETEC): 1 µM | MIC [8]: 2 µM | MIC [9]: 2 µM | MIC [10]: 8 µM | MIC (E. coli SSI‐OO15 EIEC): 1 µM

RFRWPIRRPPIRPPFYRG-NH2 [272 (SPOT form)]
MIC (E. coli BW25113 [7]): 4 µM

RFSPPIRRPPIRPPFYPG-NH2 [R3S]
MIC (E. coli BW25113 [7]): >64 µM

RFWPPIRRPPIRPPFYPG-NH2 [R3W]
MIC (E. coli BW25113 [7]): 32 µM

RGRPPIRRPPIRPPFYPG-NH2 (C-terminus assumed) [F2G]
MIC (E. coli BW25113 [7]): 16 µM

RPRPPIRRPPIRPPFYPG-NH2 (C-terminus assumed) [F2P]
MIC (E. coli BW25113 [7]): 64 µM

RRRPPIRRPPIRPPFYPG-NH2 (C-terminus assumed) [F2R]
MIC (E. coli BW25113 [7]): 16 µM

RSRPPIRRPPIRPPFYPG-NH2 (C-terminus assumed) [F2S]
MIC (E. coli BW25113 [7]): 64 µM

RWRRPIRRRPIRPPFWR [compound 291]
MBC (E. coli BW25113 [1]): 8 µM | MBC (S. aureus ATCC 25923 [3]): 64 µM | MBC [4]: >64 µM | MBC (P. aeruginosa ATCC 27853 [5]): >64 µM | MBC (A. baumannii ATCC 19606 [6]): 16 µM | MIC (E. coli BW25113 [7]): 2 µM | MIC (E. coli EA22 ETEC): 1 µM | MIC [8]: 2 µM | MIC [9]: 1 µM | MIC [10]: 2 µM | MIC (E. coli SSI‐OO15 EIEC): 1 µM

RWRRPIRRRPIRPPFWRG-NH2 [291 (SPOT form)]
MIC (E. coli BW25113 [7]): 4 µM

RWRRPIRRRPIRPPFYW [compound 281]
MBC (E. coli BW25113 [1]): 2 µM | MBC (S. aureus ATCC 25923 [3]): 32 µM | MBC [4]: >64 µM | MBC (P. aeruginosa ATCC 27853 [5]): 48 µM | MBC (A. baumannii ATCC 19606 [6]): 8 µM | MIC (E. coli BW25113 [7]): 2 µM | MIC (E. coli EA22 ETEC): 2 µM | MIC [8]: 2 µM | MIC [9]: 2 µM | MIC [10]: 2 µM | MIC (E. coli SSI‐OO15 EIEC): 1 µM

RWRRPIRRRPIRPPFYWG-NH2 [281 (SPOT form)]
MIC (E. coli BW25113 [7]): 4 µM

RWRWPIRRPPIRPPFYR [compound 278]
MBC (E. coli BW25113 [1]): 4 µM | MIC (S. aureus ATCC 25923 [2]): >64 µM | MBC (S. aureus ATCC 25923 [3]): >64 µM | MBC [4]: 48 µM | MBC (P. aeruginosa ATCC 27853 [5]): 64 µM | MBC (A. baumannii ATCC 19606 [6]): 8 µM | MIC (E. coli BW25113 [7]): 2 µM | MIC (E. coli EA22 ETEC): 1 µM | MIC [8]: 1 µM | MIC [9]: 2 µM | MIC [10]: 8 µM | MIC (E. coli SSI‐OO15 EIEC): 1 µM | MIC (P. aeruginosa ATCC 27853 [12]): 16 µM

RWRWPIRRPPIRPPFYRG-NH2 [278 (SPOT form)]
MIC (E. coli BW25113 [7]): 4 µM

SFRPPIRRPPIRPPFYPG-NH2 [R1S]
MIC (E. coli BW25113 [7]): >64 µM

WFRPPIRRPPIRPPFYPG-NH2 [R1W]
MIC (E. coli BW25113 [7]): 32 µM

colistin
permeabilized bacterial cells (PI‐positive) (E. coli BW25113 [13]): ~100%
